Measured values published in US4444776A, “Dipyrido (4,3-B) (3,4-F) indoles, process for obtaining them, therapeutical use and pharmaceutical compositions” (priority 1977, dated 1984).
Like-named read-outs stand apart in the source and are kept apart here.

Tests used:
[1] = system: tumoral strain derived from the murine leukemia due to the C. FRIEND virus; assay: Test 7: antitumoral activity in vitro on Friend leukemia tumoral strain; assay type: cell-based; settings: HUM = 1
Experimental: Test 7: Study of the antitumoral activity in vitro
This activity was measured on a tumoral strain derived from the murine leukemia due to the C. FRIEND virus.
The tumoral cells multiply in suspension in a "RPMI 1640" medium (Catalogue of GIBCO Bio-cult. Ltd. Washington Road, Sandyford Industrial Estate, PAISLEY PA 3 4EP, Renfrewshire, Scotland) supplemented with 20% of embryonary calf serum, penicillin and streptomycine. The duplication time of these cells is 11 hours. The growth fraction is equal to 1 or very close to 1 (all the cells are in the cycle). The cultures are sub-culturedat time t=0 at the concentration of 2.10^5 cells per ml in Falcon dishes containing 4 ml of medium. After twenty four hours, the product to be tested was added, i.e. at a moment when the cultures are in exponential phase of growth. Twenty four hours after the addition of the product, the cells are counted and the percentage of living cells determined by an exclusion test using "trypan" blue.

L1210 leukemia = assay: Test 16: structure-activity of R'1 substitution, L1210 (Table XII); assay type: in vivo, mouse (C57B16xDBA/2)F1; design: MST: unit not given here
Experimental: Test 16: Relationship between structure and activity of various dipyrido indoles differing by the R'1 substitution.
L1210 leukemia has been maintained by weekly passages on (C57B16xDBA/2)F1 mice. On day 0, mice were inoculated by I.P. route with various numbers of L1210 ascitic tumor cells in volumes of 0.1 ml. Subsequently as indicated, drugs were administrated in Ca^++ and Mg^++ free PBS solutions (Gibco) or in Mac Coy's medium (Gibso or Microbiological Associates). […]

[2] = system: Moloney virus / viro-induced Moloney sarcoma; assay: Test 3: development of the viro-induced Moloney sarcoma; assay type: in vivo, new-born mice; settings: J+1
From the text: The study of the development of the MOLONEY viro-induced sarcoma (Nat. Cancer. Inst. Monograph 22, 139-142, 1966) has also made it possible to determine that the compounds according to the invention are antiviral and antitumoral agents in lower animals.
Test 3: Study of the development of the viro-induced Moloney sarcoma
The injection of Moloney virus [C. Jasmin et al. J. Nat. Cander Inst. 1974 53 469-474] by the intramuscular i.m. route into new-born mice led after 10 days to the formation of a sarcoma. The appearance of the tumour was proportional to the dose of virus injected. The viral inoculum was constituted by a tumor homogenate diluted to 1/250, this corresponding to 10 TID 50, i.e. to the dose of virus inducing the appearance of a tumour in 50% of the animals infected. At this dose, 80 to 100% of the animals developed a tumour, and 100% of the survivors became leukemic. The experiment thus consisted in noting the number of mice presenting tumours, the regression, or not, of these tumours and finally in sacrificing the surviving animals after 2 months and in noting the presence or absence of splenomegaly (evidence of a leukemia). The virus was inoculated into new-born mice of 3 to 5 days by the IM route, and the mice received the following day (J+1) or five hours after injection (JO+5 hours) the product to be tested by the IP route.

L 1210 leukemia = assay: Test 1: antitumoral properties on L 1210 leukemia (Table I); assay type: in vivo, mouse; settings: 0.1 mg/mouse (5 mg/kg), J+1
Experimental: The lower animal antitumoral properties of the compounds according to the invention have been determined by their curative action on inoculated test L-1210 leukemia. [ZUBROD C. G., Proc. Nat. Acad. Sci. 1972, 69, 1042-1047 and SCHEPARTZ SA. SCREENING, 1971, CANCER Chemother. Rep. Part 3 vol.2 p.3].
This leukemia is maintained in ascitic form by passage (i.p. route) on CBDl (C57 B16×DBA/2)F1 mice. The preparation to be tested are injected by the intraperitoneal route at least one day after the inoculation of the cells (one injection only). The results are expressed in increased life span per cent (ILS %) according to KESSEL et al. Cancer Res. 1971, 31, 1883-1887) or in percentage of the number of cells killed by the product (the survival of the animals is proportional to the number of cells injected).
The following tests were made in groups of 10 mice, unless stipulated to the contrary.
Test 1: Study of the antitumoral properties of the compounds of the invention on L 1210 leukemia
The lower animal antitumoral properties of the compounds according to the invention were determined by their curative action on test inoculated L 1210 leukemia.
This leukemia was maintained on CBD 1 (C 57 B 16×DBA/2) F1 mice. The compounds to be tested were injected by the IP route one or more days after the inoculation of the cells (single injection). The results obtained, shown in table I hereinafter, are expressed in percentage of increase of life span (ILS %) and in percentage of the number of cells killed by the compound to be tested, the survival of the animals being proportional to the number of cells injected.
The percentage of the like span ILS % (Cancer. Res. 1971, 31, 1883-1887) is the following ratio: [formula] S^t =survival of the treated animals S^c =survival of the control animals

new-born mice = assay: Test 4: toxicity on new-born mice, IP; assay type: in vivo, mouse
From the text: (§1) Test 4: Investigation of the toxicity
(§2) The toxic dose has been sought, on adult ([…]×DBA/2) Fl mice and on new-born mice, of the compounds of the invention by injection by the IP route. The results obtained are given hereinafter:
(§3) 2-On new-born mice (IP route)

[3] = Test 4: toxicity on new-born mice, IP; assay type: in vivo, mouse; settings: mouse, in vivo, read-out: dead mice (converted)
From the text: as §1, §2, §3

[4] = 10^4 cells, 5 mg/kg, day +1, control MST 11.8

Compound: Cc1c2cc[n+](C)cc2c(C)c2c1[nH]c1cc[n+](C)cc12 [Example 2, 2,5,9,11-tetramethyl dipyrido [4,3-b][3,4-f] indolinium diacetate]
- Activity (ratio of the LD50 of HUM to the LD50 of the product tested) [1]: 0.2
- 60 days surv. (L1210 leukemia; 10^4 cells, 20 mg/kg, day +4): 0
- ILS % (L1210 leukemia; 10^4 cells, 20 mg/kg, day +4): 0.9%
- MST (L1210 leukemia; 10^4 cells, 20 mg/kg, day +4): 11.3
- Range of death (L1210 leukemia; 10^4 cells, 20 mg/kg, day +4): 10-17

Compound: Cc1c2cc[n+](C)cc2c(C)c2c1[nH]c1ccc(O)cc12 [HUM, 2N--methyl-9-hydroxy-ellipticinium acetate, reference compound]
- animals survived ([2]; 1 μg/mouse (0.5 mg/kg)): 90%
- mice presenting tumours ([2]; 1 μg/mouse (0.5 mg/kg)): 30%
- mice with leukemia ([2]; 1 μg/mouse (0.5 mg/kg)): 33%
- tumours regressed ([2]; 1 μg/mouse (0.5 mg/kg)): 90%
- animals presenting a tumour ([2]; 5 μg/mouse (2.5 mg/kg)): 20%
- mice leukemic ([2]; 5 μg/mouse (2.5 mg/kg)): 10%
- tumour regression ([2]; 5 μg/mouse (2.5 mg/kg)): 100%
- ILS % (L 1210 leukemia; 10^3 cells): 22.15%
- Number of cells found (L 1210 leukemia; 10^3 cells): 60
- Number of cells killed (L 1210 leukemia; 10^3 cells): 94%
- Surviving mice (L 1210 leukemia; 10^3 cells): 3/10
- ILS % (L 1210 leukemia; 10^4 cells, IP): 22.6%
- Number of cells found (L 1210 leukemia; 10^4 cells): 400
- Number of cells killed (L 1210 leukemia; 10^4 cells): 96%
- Surviving mice (L 1210 leukemia; 10^4 cells): 1/10
- 60 days surv. (L1210 leukemia; 10^3 cells, 5 mg/kg, day +1): 3
- ILS % (L1210 leukemia; 10^3 cells, 5 mg/kg, day +1): 22.15%
- MST (L1210 leukemia; 10^3 cells, 5 mg/kg, day +1): 16.86
- Range of death (L1210 leukemia; 10^3 cells, 5 mg/kg, day +1): 14-20
- ILS % (L1210 leukemia; [4]): 22.6%
- MST (L1210 leukemia; [4]): 14.9
- Range of death (L1210 leukemia; [4]): 14-20
- appearance of mice (new-born mice; 5 μg: 2.5 mg/kg): mice puny in appearance
- appearance of mice (new-born mice; 10 μg: 5 mg/kg): mice puny in appearance
- mortality ([3]; 5 μg: 2.5 mg/kg): 37.5%
- mortality ([3]; 10 μg: 5 mg/kg): 37.5%
